Laboratory results published in patent US6503935B1, “Imidazoles and related compounds as α1A agonists” (Abbott Laboratories, priority 1998, dated 2003).
Structures can show the parent of a compound that is named as a salt. Where two headings read alike, the source gives them in different places.

Key:
[1] = target: T1, α1b (hamster receptor expressed in mouse fibroblasts) (Mesocricetus auratus, UniProt P18841); experiment: Radioligand binding with [3H]-prazosin, α1b
T1 construct: expressed in transfected cells; host or cells: mouse fibroblasts
T1 sequence (P18841 1-515): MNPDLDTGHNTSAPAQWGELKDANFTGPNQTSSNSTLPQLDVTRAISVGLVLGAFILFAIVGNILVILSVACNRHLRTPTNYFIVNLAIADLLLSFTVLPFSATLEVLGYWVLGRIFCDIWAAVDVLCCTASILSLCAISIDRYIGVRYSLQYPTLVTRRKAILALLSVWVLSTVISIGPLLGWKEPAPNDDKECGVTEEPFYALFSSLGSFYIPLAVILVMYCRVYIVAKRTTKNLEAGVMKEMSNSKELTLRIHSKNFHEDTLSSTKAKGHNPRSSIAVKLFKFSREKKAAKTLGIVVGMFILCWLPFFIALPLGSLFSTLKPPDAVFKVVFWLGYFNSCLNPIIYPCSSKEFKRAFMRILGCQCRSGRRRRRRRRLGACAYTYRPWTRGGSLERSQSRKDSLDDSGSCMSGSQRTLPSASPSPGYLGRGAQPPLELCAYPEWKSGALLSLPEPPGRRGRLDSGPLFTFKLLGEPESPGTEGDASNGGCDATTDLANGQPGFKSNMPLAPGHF
In short: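 Radioligand binding with [3H]-prazosin: α1A from rat submaxillary gland; α1b hamster receptor and α1d rat receptor, each expressed in mouse fibroblasts.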

[2] = hamster receptor expressed in mouse fibroblasts, [3H]-prazosin, read-out: Radioligand Binding Ki α1b (Hamster)

Compound | Ki [1, 2] | Ki [1] | melting point
CCS(=O)(=O)Nc1cccc2c1CCCC2c1c[nH]cn1.O=C(O)/C=C\C(=O)O (single isomer, unassigned; (+)) [Example 33, (+)-N-[5-(1H-imidazol-4-yl)-5,6,7,8-tetrahydro-1-naphthalenyl]ethanesulfonamide, maleate] | 1300 nM |  | 
CCS(=O)(=O)Nc1cccc2c1CCCC2c1c[nH]cn1.O=C(O)/C=C\C(=O)O (stereo not drawn) [Example 12, N-[5-(1H-imidazol-4-yl)-5,6,7,8-tetrahydro-1-naphthalenyl]ethanesulfonamide, maleate] | 6980 nM |  | 
CS(=O)(=O)Nc1cccc(Cc2c[nH]cn2)c1.O=C(O)/C=C\C(=O)O [Example 21, N-[3-(1H-imidazol-4-ylmethyl)phenyl]methanesulfonamide, maleate] |  | 1270 nM | 142 to 144 °C
CCS(=O)(=O)Nc1cccc(Cc2c[nH]cn2)c1C.O=C(O)/C=C\C(=O)O [Example 29, N-[3-(1H-imidazol-4-ylmethyl)-2-methylphenyl]ethanesulfonamide, maleate] |  | 3880 nM | 
C=C(c1cccc(NS(=O)(=O)CC)c1)c1c[nH]cn1 [Example 45, N-{3-[1-(1H-imidazol-4-yl)vinyl]phenyly}ethanesulfonamide, maleate] |  | 1730 nM | 
